Data as given in patent US7074938B2, “Method for the synthesis of soritin compounds” (The Regents of the University of California, priority 2002, dated 2006).
Marks after values point to notes of the source that are not given here.

Experiments:
Format in all cases: in vivo
[1] = tested on: PMA-induced edema of the mouse ear; test: Inhibition of PMA-induced inflammation (edema) of the mouse ear; conditions: 3 h 20 min, in mg (unit assumed)
Procedure: (§1) The test compound made by the method of the present invention and a known inflammatory agent, phorbol myristate acetate (PMA), are topically applied simultaneously to the left ears of mice. Three hours and 20 minutes following application, the mice are sacrificed. Both left ears and right ears are removed and standard sized bores taken. Edema (inflammation) is measured as the difference in weight between left and right ears. See Van Arman, C. G. (1974) Clin. Pharmacol. Ther. 16:900–904, which is herein incorporated by reference.
as §1, with “Soritin B and” for “The test compound made by the method of the present invention and”, “(PMA), were” for “(PMA), are”, “mice were” for “mice are”, “ears were” for “ears are”, “(inflammation) was” for “(inflammation) is”

[2] = tested on: RTX-induced edema of the mouse ear; test: Inhibition of resiniferatoxin (RTX)-induced inflammation (edema) of the mouse ear; conditions: 30 min
Procedure: Induction of mouse ear edema can be conducted according to known methods. See Inoue, 1-f., N. Nagata, Y. Koshffiara (1993), which is herein incorporated by reference. Soritin compounds to be tested for anti-neurogenic inflammatory activity are topically applied in acetone to the ears of mice in a solution that includes the edema-causing irritant resiniferatoxin (RTX). RTX alone (0.1 μg/ear) or in combination with various dilutions of test compound are applied to both sides of the left ears (5 mice per treatment group) and acetone is applied to all right ears. After a 30-minute incubation, the mice are sacrificed, the ears removed, and bores taken and weighed. Edema is measured by subtracting the weight of the right ear (acetone control) from the weight of the left ear (treated). Results are recorded as % decrease (inhibition) or % increase (potentiation) in edema relative to the control group edema.
Soritin B was tested for anti-neurogenic inflammatory activity by topically applying in acetone to the ears of mice in a solution that includes the edema-causing irritant resiniferatoxin (RTX) as provided above. See Inoue, 1-f., N. Nagata, Y. Koshffiara (1993), which is herein incorporated by reference. Specifically, RTX alone (0.1 μg/ear) or in combination with various dilutions of Soritin B was applied to both sides of the left ears (5 mice per treatment group) and acetone was applied to all right ears. After a 30-minute incubation, the mice are sacrificed, the ears removed, and bores taken and weighed. Edema was measured by subtracting the weight of the right ear (acetone control) from the weight of the left ear (treated). Results were recorded as % decrease (inhibition) or % increase (potentiation) in edema relative to the control group edema.

test ears of mice = test: Soritin B coloration and irritation when applied to mouse ear skin

Structure (SMILES): COC(=O)C(c1c[nH]c2ccccc12)c1c[nH]c2ccccc12 [Soritin B, bis-(1H-indol-3-yl)-acetic acid methyl ester]
- Mean edema (difference in weight between left and right ear bores) ([1]; 3.12 μg/ear topical with PMA 2.0 μg/ear): 10.0**
- Mean edema (difference in weight between left and right ear bores) ([1]; 6.25 μg/ear topical with PMA 2.0 μg/ear): 9.7**
- Mean edema (difference in weight between left and right ear bores) ([1]; 12.5 μg/ear topical with PMA 2.0 μg/ear): 8.6*
- Mean edema (difference in weight between left and right ear bores) ([1]; 25 μg/ear topical with PMA 2.0 μg/ear): 5.9*
- Mean edema (difference in weight between left and right ear bores) ([1]; 50 μg/ear topical with PMA 2.0 μg/ear): 3.4*
- Mean edema (weight of left ear minus right ear bores) ([2]; 3.12 μg/ear topical in acetone with RTX 0.1 μg/ear): 9.1
- Mean edema (weight of left ear minus right ear bores) ([2]; 6.25 μg/ear topical in acetone with RTX 0.1 μg/ear): 6.5*
- Mean edema (weight of left ear minus right ear bores) ([2]; 12.5 μg/ear topical in acetone with RTX 0.1 μg/ear): 3.2*
- Mean edema (weight of left ear minus right ear bores) ([2]; 25 μg/ear topical in acetone with RTX 0.1 μg/ear): 1.7*
- Mean edema (weight of left ear minus right ear bores) ([2]; 50 μg/ear topical in acetone with RTX 0.1 μg/ear): 1.0*
- Redness or swelling after overnight exposure (test ears of mice; 50 μg/ear, overnight exposure, compared to controls): did not result in any discernable redness or swelling
- Coloration on test ears (test ears of mice; in acetone alone and in combination with PMA or RTX, from beginning to end of the experiments): did not exhibit any discernable coloration
